No end group written: not given here.
What was measured:
[1] = test system: E. coli K88; details: MHB, 37°C, 18-24 h, at least three times in duplicate
Text: (§1) E. coli ATCC25922, P. aeruginosa ATCC27853, S. aureus ATCC29213, S. epidermidis ATCC12228, S. faecalis ATCC29212 and B. subtilis CMCC63501 were obtained from the College of Veterinary Medicine, Northeast Agricultural University (Harbin, China), E. coli K88, E. coli CVCC1515 and P. aeruginosa ATCC15442 were bestowed by Prof. J.H. Wang (Gene Engineering Laboratory, Feed Research Institute, Chinese Academy of Agricultural Sciences Beijing, China) and E. coli UB1005 was kindly provided by Prof. Q.S. Qi (State Key Laboratory of Microbial Technology, Shandong University, China). […] Briefly, 50 µl of approximate 0.5–1 × 10^6 colony forming units (CFU)/ml of cells were diluted in Mueller-Hinton broth and distributed to 96-well plate, 50 µl of twofold peptides were added and the plates was incubated at 37°C for 18–24 h. The MIC values were calculated as the lowest peptide concentration that prevented visible turbidity and negative control of the pure broth without microbes. The tests were performed at least three times in duplicate.

[2] = test system: S. typhimurium ATCC14028; details: S. typhimurium ATCC14028; MHB, 37°C, 18-24 h; at least three times in duplicate
Text: as §1

[3] = test system: E. coli CVCC1515; details: E. coli CVCC1515; MHB, 37°C, 18-24 h; at least three times in duplicate
Text: as §1

[4] = test system: E. coli ATCC25922; details: E. coli ATCC25922; MHB, 37°C, 18-24 h; at least three times in duplicate
Text: as §1

[5] = test system: S.epidermidis ATCC12228; details: S.epidermidis ATCC12228; MHB, 37°C, 18-24 h; at least three times in duplicate
Text: as §1

[6] = test system: S. pullorum C79-13; details: S. pullorum C79-13; MHB, 37°C, 18-24 h; at least three times in duplicate
Text: as §1

[7] = test system: S.aureus ATCC29213; details: S.aureus ATCC29213; MHB, 37°C, 18-24 h; at least three times in duplicate
Text: as §1

[8] = test system: P. aeruginosa ATCC27853; details: P. aeruginosa ATCC27853; MHB, 37°C, 18-24 h; at least three times in duplicate
Text: as §1

[9] = test system: P. aeruginosa variant 1; details: P. aeruginosa variant 1, obtained by step-wise culture with ciprofloxacin hydrochloride; MHB, 37°C, 18-24 h
Text: as §1

[10] = test system: S.faecalis ATCC29212; details: S.faecalis ATCC29212; MHB, 37°C, 18-24 h; at least three times in duplicate
Text: as §1

[11] = test system: P. aeruginosa variant 2; details: P. aeruginosa variant 2, obtained by step-wise culture with gentamicin; MHB, 37°C, 18-24 h
Text: as §1

[12] = test system: P. aeruginosa ATCC15442; details: P. aeruginosa ATCC15442; MHB, 37°C, 18-24 h; at least three times in duplicate
Text: as §1

[13] = test system: B. subtilis CMCC63501; details: B. subtilis CMCC63501; MHB, 37°C, 18-24 h; at least three times in duplicate
Text: as §1

[14] = test system: E. coli UB1005; details: E. coli UB1005; MHB, 37°C, 18-24 h; at least three times in duplicate
Text: as §1

[15] = test system: human red blood cells (hRBC); experiment: Hemolytic activity; type: cell-based; details: minimum concentration that caused 5% hemolysis of hRBC (footnote); 1% hRBC in PBS pH 7.4, 1 h, 37°C, OD 492 nm
Method: The amount of released hemoglobin by the lysis of erythrocytes was measured for hemolytic activity of peptides. Human erythrocytes were obtained from a healthy donor with written informed consent. The experimental protocol was reviewed and approved by the ethics committee of the Northeast Agricultural University Hospital. The measurement was based on a previously described method. The fresh hRBCs were washed three times by centrifugation (1000 g, 5 min, 4°C) in PBS (pH 7.4), and then resuspended in PBS to obtain the erythrocyte with a dilution of approximately 1% (v/v). Then, 50 µL of hRBCs solution was incubated with 50 µL of different concentrations of the peptides dissolved in PBS for 1 h at 37°C, before centrifugation (1000 g, 5 min, 4°C) again. The absorbance of the supernatants was measured at optical density (OD) 492 nm. […] The control samples for 0% and 100% hemolysis consisted of hRBCs in PBS (Ablank) only and in 0.1% Triton X-100 (Atriton), respectively. The percentage of hemolysis was calculated according to the following equation: [drawing 3]

[16] = test system: Gram-negative and Gram-positive strains; experiment: MIC over all tested strains (range, geometric mean); type: cell-based; set-up: GM (geometric mean of MIC values from all microbial strains): unit not given here
Text: as §1

Substance | MIC [1] [µM] | MIC [2] [µM] | MIC [3] [µM] | MIC [4] [µM] | MIC [5] [µM] | MIC [6] [µM] | MIC [7] [µM] | MIC [8] [µM] | MIC [9] [µM] | MIC [10] [µM] | MIC [11] [µM] | MIC [12] [µM] | MIC [13] [µM] | MIC [14] [µM] | MHC [15] [µM] | antimicrobial activity (in words) ([16]; Gram-negative and Gram-positive strains) | GM (geometric mean of MIC values from all microbial strains) ([16]; all strains of Table 2)
RFRRLRKKTRKRLKKI-NH2 [RI16] | >256 | 64 | 128 | 128 | 32 | 64 | 128 | 128 | >256 | 128 | >256 | >256 | 64 | 128 | >256 |  | 
RKKTRKR-NH2 [RR7] | >256 | >256 | >256 | >256 | >256 | >256 | >256 | >256 | >256 | >256 | >256 | >256 | >256 | >256 | >256 | poor antimicrobial activity | 256
